Reference: patent US20230040770A1, “HETEROCYCLIC COMPOUND AND USE THEREOF” (TAKEDA PHARMACEUTICAL COMPANY LIMITED, priority 2019, published 2023)

Legend:
[1] = molecular target: T1, human orexin type 2 receptor (Homo sapiens, UniProt O43614); assay: Measurement of orexin type 2 receptor agonist activity (calcium indicator fluorescence, CHO cells forcibly expressing human OX2 receptor); format: cell-based; details: compound at 3 μM; 0% = DMSO, 100% = orexin A (human) 10 nM
T1 construct: expressed in transfected cells
T1 sequence (O43614 1-444): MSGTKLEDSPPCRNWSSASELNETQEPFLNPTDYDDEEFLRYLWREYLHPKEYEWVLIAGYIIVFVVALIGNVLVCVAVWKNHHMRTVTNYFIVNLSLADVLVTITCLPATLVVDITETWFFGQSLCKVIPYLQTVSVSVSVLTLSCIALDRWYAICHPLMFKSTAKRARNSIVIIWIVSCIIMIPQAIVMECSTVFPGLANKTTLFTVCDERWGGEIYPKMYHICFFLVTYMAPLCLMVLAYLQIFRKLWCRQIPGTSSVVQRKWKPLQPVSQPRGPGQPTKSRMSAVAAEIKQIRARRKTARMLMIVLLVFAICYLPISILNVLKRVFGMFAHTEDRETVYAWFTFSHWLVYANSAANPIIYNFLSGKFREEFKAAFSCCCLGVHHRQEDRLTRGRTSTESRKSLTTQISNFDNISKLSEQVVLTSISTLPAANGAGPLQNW
Summary of the method: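 Agonist response normalised between vehicle (0%) and orexin A at 10 nM final (100%), from kinetic Fluo-4 calcium signals recorded for about 2 min after compound addition. Cells: stable human OX2R CHO clone, dye-loaded 30 min at 37 °C plus 30 min at room temperature.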

[2] = Evaluation of microsome stability in human; format: in vitro ADME; details: pH 7.4; in vitro intrinsic metabolic clearance; human liver microsomes 0.2 mg/mL, 1 μmol/L test compound, NADPH-generating system
Method: Human liver microsomes were purchased from Xenotech, LLC (Lenexa, Kans.). An incubation mixture consisted of microsomes in 50 mmol/L KH2PO4—K2HPO4 phosphate buffer (pH 7.4) and 1 μmol/L test compound. The concentration of microsomal protein was 0.2 mg/mL. An NADPH-generating system (5 mmol/L MgCl2, 5 mmol/L glucose-6-phosphate, 0.5 mmol/L beta-NADP+ and 1.5 unit/mL glucose-6-phosphate dehydrogenase) was added to the incubation mixture with a half volume of the reaction mixture to initiate the enzyme reaction. The reaction was terminated 15 and 30 minutes after the initiation of the reaction by mixing the reaction mixture with acetonitrile, followed by centrifugation at 2500 rpm for 10 min. The supernatant was subjected to LC/MS/MS analysis. The metabolic rate constant was calculated as the slope of the remaining rate-time plot. The in vitro intrinsic metabolic clearance was calculated by dividing initial metabolic rate constant by microsomal protein in the incubation mixture.

cynomolgus monkeys = assay: Evaluation of wake-promoting effects in cynomolgus monkeys (EEG/EMG); format: in vivo, cynomolgus monkey; details: Macaca fascicularis, po, time spent in wakefulness for 4 h after administration, read-out: Wakefulness time (% of vehicle treatment) (Mean); for response vs control in vivo at 3 mg/kg: 3 mg/kg p.o. at ZT12; for response vs control in vivo at 10 mg/kg: 10 mg/kg p.o. at ZT12
Method: The wake-promoting effects were evaluated by measuring the electroencephalogram (EEG) and electromyogram (EMG) in cynomolgus monkeys. Under isoflurane anesthesia (1-5%, Pfizer Japan Inc., Tokyo, Japan), male cynomolgus monkeys (3-5 years old, Hamri Co., Ltd., Ibaraki, Japan) were surgically implanted with radio-telemetry transmitters (TL10M3-D70-EEE, Data Sciences International Inc., MN, USA). EEG electrodes were screwed into the skull at the parietal area. EMG electrodes were implanted on the cervical muscles. After the surgery, each monkey was given penicillin (100,000 units/head, i.m., Meiji Seika Pharma Co., Ltd., Tokyo, Japan), buprenorphine (0.02 mg/kg, i.m., Otsuka Pharmaceutical Co., Ltd., Tokyo, Japan) and prednisolone (1 mg/kg, s.c., Kyoritsu Seiyaku Co., Ltd., Tokyo, Japan) daily for one week. After at least a 1-month recovery period in home cages, the monkeys were habituated to the recording chamber placed in a soundproof room. EEG and EMG signals were recorded using the telemetry system (Dataquest ART software, Data Sciences International Inc., MN, USA) and the signals were analyzed using SleepSign software (Kissei Comtec Co., Ltd., Nagano, Japan). After confirming long sleep in dark phase in the experimental room, we used animals to examine the wake-promoting effect of compounds.
Oral test compounds (3 or 10 mg/kg) suspended in 0.5% methylcellulose aqueous solution, or vehicle (i.e., 0.5% methylcellulose aqueous solution) was administered orally (p.o.) to monkeys at zeitgeber time 12 (ZT12) in a volume of 5 mL/kg body weight in cross-over design or pre-post design (n=1-4). EEG and EMG recordings were performed for 4 h after the compound administration. The time spent in wakefulness for 4 h after administration (% of vehicle treatment) was calculated by using SleepSign.
Parenteral test compounds (0.1 or 0.3 mg/kg) dissolved in a mixed solution comprising 5% DMSO, 5% Cremophor EL, 20% PEG400 and 70% soluplus (1% (w/v)), or vehicle (i.e., a mixed solution comprising 5% DMSO, 5% Cremophor EL, 20% PEG400 and 70% soluplus (1% (w/v))) was administered subcutaneously (s.c.) to monkeys at ZT12 in a volume of 0.5 mL/kg body weight in a pre-post design (n=1-2). EEG and EMG recordings were performed for 4 h after the compound administration. The time spent in wakefulness for 4 h after administration (% of vehicle treatment) was calculated by using SleepSign.

OX2R agonist activity (3 μM, %) [1] [%]	microsomal CLint at 1 μmol/L [2] [µL/min/mg]	Structure (SMILES)	response vs control in vivo at 3 mg/kg (cynomolgus monkeys) [%]	response vs control in vivo at 10 mg/kg (cynomolgus monkeys) [%]
95	135	CCS(=O)(=O)N[C@@H]1[C@H](Cc2cccc(-c3cc(F)cc(F)c3)c2F)N(C(=O)[C@H]2CCO2)CC1(F)F [Example 56, N-{(2S,3R)-4,4-difluoro-1-((2R)-oxetane-2-carbonyl)-2-[(2,3′,5′-trifluoro[1,1′-biphenyl]-3-yl)methyl]pyrrolidin-3-yl}ethanesulfonamide]	417	
85	3	CCS(=O)(=O)N[C@H]1[C@@H](F)CN(C(=O)[C@H]2CCO2)[C@H]1Cc1cccc(-c2ccccc2)c1F [Example 302, N-[(2S,3R,4S)-4-fluoro-2-[(2-fluoro[1,1′-biphenyl]-3-yl)methyl]-1-((2R)-oxetane-2-carbonyl)pyrrolidin-3-yl]ethanesulfonamide]		288
104	61	CCS(=O)(=O)N[C@@H]1[C@H](Cc2cccc(-c3cccc(F)c3F)c2F)N(C(=O)C(C)(C)O)CC1(F)F [Example 66, N-{(2S,3R)-4,4-difluoro-1-(2-hydroxy-2-methylpropanoyl)-2-[(2,2′,3′-trifluoro[1,1′-biphenyl]-3-yl)methyl]pyrrolidin-3-yl}ethanesulfonamide]	463	
111	4	CCS(=O)(=O)N[C@@H]1[C@H](Cc2cccc(-c3cc(F)ccc3F)c2F)N(C(=O)C(C)(C)O)CC1(F)F [Example 67, N-{(2S,3R)-4,4-difluoro-1-(2-hydroxy-2-methylpropanoyl)-2-[(2,2′,5′-trifluoro[1,1′-biphenyl]-3-yl)methyl]pyrrolidin-3-yl}ethanesulfonamide]	356	
91	35	CCS(=O)(=O)N[C@@H]1[C@H](Cc2cccc(-c3cc(F)cc(F)c3)c2F)N(C(=O)[C@H]2C[C@H](F)C2)CC1(F)F [Example 375, N-{(2S,3R)-4,4-difluoro-1-((1r,3S)-3-fluorocyclobutane-1-carbonyl)-2-[(2,3′,5′-trifluoro[1,1′-biphenyl]-3-yl)methyl]pyrrolidin-3-yl}ethanesulfonamide]	396	
100	67	CCS(=O)(=O)N[C@H]1[C@@H](F)CN(C(=O)C2CC2)[C@H]1Cc1cccc(-c2cc(F)cc(F)c2)c1F [Example 236, N-{(2S,3R,4S)-1-(cyclopropanecarbonyl)-4-fluoro-2-[(2,3′,5′-trifluoro[1,1′-biphenyl]-3-yl)methyl]pyrrolidin-3-yl}ethanesulfonamide]		716
94	65	CS(=O)(=O)N[C@@H]1[C@H](Cc2cccc(-c3cc(F)cc(F)c3)c2F)N(C(=O)[C@H]2CCO2)CC1(F)F [Example 91, N-{(2S,3R)-4,4-difluoro-1-((2R)-oxetane-2-carbonyl)-2-[(2,3′,5′-trifluoro[1,1′-biphenyl]-3-yl)methyl]pyrrolidin-3-yl}methanesulfonamide]		548
93	9	CS(=O)(=O)N[C@@H]1[C@H](Cc2cccc(-c3cc(F)cc(F)c3)c2F)N(C(=O)C23CC(C2)C3)CC1(F)F [Example 87, N-{(2S,3R)-1-(bicyclo[1.1.1]pentane-1-carbonyl)-4,4-difluoro-2-[(2,3′,5′-trifluoro[1,1′-biphenyl]-3-yl)methyl]pyrrolidin-3-yl}methanesulfonamide]	832	
88	13	CCS(=O)(=O)N[C@@H]1[C@H](Cc2cccc(-c3cc(F)cc(F)c3)c2F)N(C(=O)C2CC2)CC1(F)F [Example 144, N-{(2S,3R)-1-(cyclopropanecarbonyl)-4,4-difluoro-2-[(2,3′,5′-trifluoro[1,1′-biphenyl]-3-yl)methyl]pyrrolidin-3-yl}ethanesulfonamide]	649	
117	12	CCS(=O)(=O)N[C@@H]1[C@H](Cc2cccc(-c3ccccc3)c2F)N(C(=O)C(C)(C)O)CC1(F)F [Example 5, N-[(2S,3R)-4,4-difluoro-2-[(2-fluoro[1,1′-biphenyl]-3-yl)methyl]-1-(2-hydroxy-2-methylpropanoyl)pyrrolidin-3-yl]ethanesulfonamide]		412
